Test [1] deals with clinical isolates of Acinetobacter baumannii (and ATCC17978). Kind of test: MIC determination at University Medical Center Groningen. It is filed as cell-based. The text has this:
3.4.3 MIC Determination at University Medical Center Groningen (the Netherlands)
Tested reference compounds. Amikacin sulfate (Cat. No. 01693, Chem-Impex), Gentamicin sulfate (Cat. No. G4918, Sigma Aldrich).
Bacterial strains/isolates. Pseudomonas aeruginosa ATCC 27853, Escherichia coli ATCC 25922, Klebsiella pneumonia ATCC43816, Acinetobacter baumannii ATCC17978, 9 clinical isolates of Klebsiella pneumonia (origin: 4 unknown, 3 urine, 1 sputum, 1 catheter tip), 7 clinical isolates of Pseudomonas aeruginosa (origin: 3 unknown, 1 wound, 1 catheter, 1 faeces, bronco alveolar liquid=BAL), 8 clinical isolates of Escherichia coli (origin: 2 bile liquid, 2 rectum, 1 throat, 2 blood culture, 1 sputum), 4 clinical isolates of Acinetobacter baumannii (origin: 2 blood culture, 1 sputum, 1 bone).
Culture media and equipment. As indicated by EUCAST guidelines (European Committee on Antimicrobial Susceptibility Testing (EUCAST); Media preparation for EUCAST disk diffusion testing and for determination of MIC values by the broth microdilution method; Version 5.0, 2017), Mueller Hinton Broth, CM0405, (Oxoid) was used for the broth micro-dilutions; and Mueller Hinton Agar, CM0337, (Oxoid) was used for the plating on agar. The testing assays were conducted in 96-well plates, with U-bottom shape (Greiner Bio-one); All bacteria strains/isolates used were handled in a Laminar flow, Clean Air (Baker). A CO2 incubator commercialized by Sanyo was used. Finally, spectrophotometer measurements were conducted using a Synergy 2 Multi-detection Microplate Reader (BioTek).
Compound preparation. The compounds were weighed and dissolved into MilliQ water. These concentrated stock aliquots were then further diluted to reach the desired testing concentrations. Serial dilutions were made in order to achieve the ten desired final concentrations for the tested compounds, that ranged between 64-0.125 μg/mL. The concentrations were calculated in respect to the 150 μL of final volume used for each of the 96-wells. Of these dilutions, 100 μL was added in each testing well of a sterile 96-well plate. All compound dilutions were plated in triplicate, while duplicates were used for the two reference antibiotics.
Inoculum preparation. The clinical isolates were revived from Luria Bertani medium storage at −80° C. by plating them overnight on MH agar plates. The following day, a few colonies were picked and inoculated in small glass bottles containing 10 mL MH broth. Growth was subsequently allowed for approx. 3 hours, at 35° C. with 250 rpm shaking, until the isolates reached late logarithmic growth phase. At this point culture solutions were prepared with an OD600 (optical density measured at 600 nm; measured using Synergy 2 Multi-detection Microplate Reader; BioTek) of 0.05. […] 50 μL of culture suspension was added to each of the wells of the 96 well plate previously loaded with the desired antibiotic/medium solution, reaching a final total volume of 150 μL per well. As controls, blanks of the MH medium and of culture were added to the 96-well plate. Plates were incubated in a plate incubator in static conditions at 35° C. for 18 hours.
MIC determination. After the incubation time, the MIC value was determined by visual inspection of bacterial growth within 96-well plates. The first column in which there was no visible growth of bacteria was determined as the MIC90 value for the compound tested in that particular row. Additionally, spectrophotometer readouts at 600 nm were recorded for each well.
MIC90. The MIC90 of a compound was assigned at which no visible growth of bacteria was determined.

Test [2] has as its system Escherichia coli ATCC700336. Kind of test: Urinary tract infection model. It counts as in vivo, female C3H/HeNRj mice. The note with it: for Change from vehicle group / Avg. Log CFU/g (kidney pair): SC, QD; for Change from vehicle group: Avg. Log CFU/g (kidney pair) vs vehicle; for Avg. Log CFU/g (kidney pair): kidneys 24 hours post treatment. The method, then: 4.3 Urinary Tract Infection Model (Escherichia coli ATCC700336)
Two compounds, i.e. ABX5006 and ABX5026, and a comparator antibiotic (gentamicin sulfate; Cat. No. G4918, Sigma Aldrich) were tested in a mouse model of urinary tract infection with Escherichia coli ATCC700336.
Urinary tract infection model: Pathogen-free female C3H/HeNRj mice (8 mice per dosing group) weighing 24±4 g were used.
For subcutaneous treatment, pre-weighed reference compound (gentamicin sulfate) was dissolved in 0.9% sodium chloride solution, to reach a final concentration of 1.5 mg/mL for a dose of 15 mg/kg (group 3) or 3.0 mg/mL for a dose of 30 mg/kg (group 2). Each mouse was infected transurethral with Escherichia coli ATCC700336 (5.0×10^1 CFU/100 μL/mouse), under light ketamine/xylazine anesthesia. Mice were water deprived 1.5 hours prior to infection and 1 hour post infection.
Animals were dosed subcutaneously once either with gentamicin (groups 2-3), ABX5006 (groups 4-5), ABX5026 (groups 6-7) or vehicle—PBS (group 1) 24 hours post infection.
Both kidneys were aseptically removed and placed into pre-weighed sterile Precellys test tube containing 2 mL of sterile PBS. Post-sampling, Precellys test tubes were weighed once again. Kidneys were homogenized in sterile PBS by Precellys Evolution, homogenizer, BERTIN Technologies, and serially diluted for CFU determination. Kidney pairs of one animal will represent one sample.
Supplies/Chemicals. Tryptic Soy Agar (BD Cat. no. 236950, Becton Dickinson), Trypticase Soy Broth (BD Cat. no. 211768, Becton Dickinson), 2 mL syringes (BD Plastipak, Ref. 300185, Becton Dickinson), 1 mL syringes (BD Plastipak, Ref. 300013, Becton Dickinson), Sterile, single use needles (BD MICROLANCE, 27 G ¾, Nr. 20 ref. 300220, Becton Dickinson), Sterile, single use needles (BD MICROLANCE, 25 G 1, Nr. 18 ref. 300400, Becton Dickinson), Narkamon (100 mg/mL ketamine chloride) (Bioveta, a.s., Czech Republic), Xylazine 2% (Alfasan International B.V., Woerden, Netherlands), Saline (HZ™, serial no.: 1422115), PBS (Sigma, cat. no. P4417, Germany), Precellys lysing kit (ref. no. KT03961-1-302.7, Bertin technologies, France).
Inoculum preparation for intramuscular infection. Escherichia coli ATCC 700336 was grown on Tryptic Soy Agar plate and incubated for 18-20 h at 37° C. Bacterial agar growth was suspended to 1.0×10^10 colony-forming units (CFU)/mL in adequate volume of tryptic soy broth (TSB), and the inoculum was held at 4° C. until it was used for infection.
CFU determination. Kidney pairs were homogenized using a Precellys Evolution homogenizer (Bertin Instruments).

Structures are written as SMILES. Where only a bound is given, the exact number is not on record here.

Turning to `N=C(N)NC1C(O)[C@@H](CO)OC(OC2C(F)[C@H](O[C@H]3OC(CN)[C@@H](O)CC3N)C(N)C[C@H]2NC(=O)[C@@H](O)CCN)[C@@H]1O` (stereo partly drawn) [ABX5006, Tobra-AHB-F-Gua], the MIC90 in test [1] (ATCC17978, A. baumannii ATCC17978 strain, broth micro-dilution (CLSI)) is < 0.125 µg/mL; in test [1] (ATCC17978, A. baumannii clinical isolate AB-2, Multidrug-resistant, origin Sputum) it was 0.5 to 1 µg/mL; in test [1] (ATCC17978, A. baumannii clinical isolate AB-10, Multidrug-resistant, origin Blood culture), 0.5 to 1 µg/mL; in test [1] (ATCC17978, A. baumannii clinical isolate AB-14, Multidrug-resistant, origin Blood culture), 0.5 to 1 µg/mL; in test [1] (ATCC17978, A. baumannii clinical isolate AB-18, Multidrug-resistant, origin Bone), 2 to 4 µg/mL. Besides, the “CFU count reduction in kidneys in comparison to the vehicle control group” value is 1.38 log 10 in test [2] (dose 15 mg/kg SC QD) and 1.53 log 10 in test [2] (dose 30 mg/kg SC QD). Further, the “Change from vehicle group” value in test [2] (dose 15 mg/kg) is reported as 1.38; in test [2] (dose 30 mg/kg) it was 1.53. Moreover, the “Avg. Log CFU/g (kidney pair)” value in test [2] (dose 15 mg/kg) worked out at 2.60 Log CFU/g; in test [2] (dose 30 mg/kg), 1.45 Log CFU/g.

As to `N=C(NC[C@@H]1CCCN1)NC1[C@@H](O)C(OC2[C@@H](F)[C@H](O[C@H]3OC(CN)[C@@H](O)CC3N)C(N)C[C@H]2NC(=O)[C@@H](O)CCN)O[C@H](CO)[C@H]1O` (stereo partly drawn) [ABX5026, Tobra-AHB-F-Gua (S) pyrrolidine-2-yl-methyl], the “CFU count reduction in kidneys in comparison to the vehicle control group” value in test [2] (dose 15 mg/kg SC QD) is recorded as 1.58 log 10; in test [2] (dose 30 mg/kg SC QD), 1.72 log 10. Besides, the “Change from vehicle group” value in test [2] (dose 15 mg/kg) is on record as 1.58; in test [2] (dose 30 mg/kg), 1.22. For the same compound, the “Avg. Log CFU/g (kidney pair)” value in test [2] (dose 15 mg/kg) was 1.40 Log CFU/g; in test [2] (dose 30 mg/kg), 2.26 Log CFU/g. Moreover, the “samples with CFU counts below the limit of detection” value in test [2] (kidneys, LOD=2.0×10^2 CFU/mL) is reported as “five out of eight”.
